Measured values taken from patent US8497278B2, “Imidazo[1,2-a]pyridine compounds” (priority 2008, dated 2013).

Tests used:
Swiss Webster (CFW) mice = assay: Four Plate Test (FPT); format: in vivo; details: mouse, 30 min before test, 2 min session
Text: Four Plate Test (FPT) Protocol: The four plate test (FPT) is an animal model of anxiety in which simple ongoing behavior (exploration of novel surroundings) is suppressed by the delivery of mild electric foot-shock contingent to quadrant crossing (Aron, et al., 1971). Clinically effective classes of anxiolytic compounds such as benzodiazepines, selective serotonin reuptake inhibitors, or 5-HT1A receptor agonists produce a marked anti-punishment effect (an increase in punished crossings), which is thought to indicate anxiolytic activity (Aron, et al., 1971; Bourin, et al., 1992; Hascoet, et al., 2000; Ring, et al., 2006). The four plate apparatus (Bioseb, Chaville France) consists of a cage (18×25×16 cm) floored by four identical rectangular metal plates (8×11 cm) separated from one another by a gap of 4 mm. The plates are connected to a shocker unit that can generate electric foot shocks.
Male Swiss Webster (CFW) mice from Charles River (Wilmington, Mass.) were used for the FPT. Mice were received at 3-weeks of age. Upon receipt, mice were assigned unique identification numbers (tail marked) and were group housed with 4 mice per cage in mouse ventilated racks. All animals remained housed in groups of four during the remainder of the study. All mice were acclimated to the colony room for at least one week prior to testing and were subsequently tested at an average age of 4 weeks of age. During the period of acclimation, mice […] were examined on a regular basis, handled, and weighed to assure adequate healtH, D and suitability. Animals were maintained on a 12/12 light/dark cycle. The room temperature was maintained between 20 and 23° C. with a relative humidity maintained between 30% and 70%. Chow and water were provided ad libitum for the duration of the study. In each test, animals were randomly assigned across treatment groups. Alprazolam (0.3 mg/kg) was used as the positive control. Compounds of the present invention, vehicle (45% hydroxypropyl beta-cyclodextrin) and alprazolam were administered orally to all groups (n=10 mice per group) 30 minutes prior to behavioral testing. Following pretreatment, mice were gently placed in the four plate chamber and allowed to explore the enclosure for 18 seconds. After the exploration period, every time the mouse crossed from one plate to another, the experimenter, blind to the dosing conditions, administered a mild electric foot-shock, and referred to as a punished crossing. The intensity and duration of the foot-shock were 0.5 mA for 0.5 seconds. The number of punished crossings was recorded during the 2 min test session. The plates were thoroughly cleaned with 70% ethanol immediately after each mouse. All data were analyzed using an analysis of variance (ANOVA) followed by Fisher's PLSD post hoc test. An effect was considered significance if p<0.05. Statistical outliers above or below 2 standard deviations from the mean in any of the […] were removed from the final analysis.

[1] = target: T1, α2 subtype containing GABA-A receptors (Homo sapiens, UniProt P18507+P47869); assay: Two-electrode voltage clamp electrophysiology in Xenopus oocytes, potentiation of GABA EC20 response, α2; format: cell-based; details: 100 nM compound; for activation at 0.1 µM: read-out: Percentage of potentiation alpha2
T1 construct: expressed in transfected cells; host or cells: Xenopus laevis oocytes, cRNA injected
T1 sequence (P47869 29-451): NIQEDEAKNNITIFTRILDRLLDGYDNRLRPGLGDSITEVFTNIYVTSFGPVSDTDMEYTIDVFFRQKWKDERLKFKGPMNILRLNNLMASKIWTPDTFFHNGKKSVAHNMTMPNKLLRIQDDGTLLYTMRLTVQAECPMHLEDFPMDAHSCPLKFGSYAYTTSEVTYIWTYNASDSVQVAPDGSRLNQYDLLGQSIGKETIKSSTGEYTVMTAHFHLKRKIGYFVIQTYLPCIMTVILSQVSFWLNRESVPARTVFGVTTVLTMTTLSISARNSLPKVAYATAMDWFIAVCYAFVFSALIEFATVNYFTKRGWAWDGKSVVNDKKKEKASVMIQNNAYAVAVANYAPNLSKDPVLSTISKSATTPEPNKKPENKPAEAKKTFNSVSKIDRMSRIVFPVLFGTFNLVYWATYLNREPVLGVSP
T1 sequence (P28472 26-473 partner): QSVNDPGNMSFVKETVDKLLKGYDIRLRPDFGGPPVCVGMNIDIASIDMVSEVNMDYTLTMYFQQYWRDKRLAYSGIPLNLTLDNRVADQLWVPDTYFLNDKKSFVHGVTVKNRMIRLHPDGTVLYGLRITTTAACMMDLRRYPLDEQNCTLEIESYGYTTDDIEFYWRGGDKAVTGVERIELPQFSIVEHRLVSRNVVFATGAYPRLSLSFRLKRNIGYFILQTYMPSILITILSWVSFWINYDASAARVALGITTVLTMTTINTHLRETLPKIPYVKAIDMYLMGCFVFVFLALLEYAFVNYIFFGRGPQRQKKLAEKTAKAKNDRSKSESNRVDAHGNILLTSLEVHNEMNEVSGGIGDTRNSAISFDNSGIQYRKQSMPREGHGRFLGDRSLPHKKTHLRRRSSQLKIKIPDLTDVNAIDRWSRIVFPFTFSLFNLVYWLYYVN
T1 sequence (P18507 40-475): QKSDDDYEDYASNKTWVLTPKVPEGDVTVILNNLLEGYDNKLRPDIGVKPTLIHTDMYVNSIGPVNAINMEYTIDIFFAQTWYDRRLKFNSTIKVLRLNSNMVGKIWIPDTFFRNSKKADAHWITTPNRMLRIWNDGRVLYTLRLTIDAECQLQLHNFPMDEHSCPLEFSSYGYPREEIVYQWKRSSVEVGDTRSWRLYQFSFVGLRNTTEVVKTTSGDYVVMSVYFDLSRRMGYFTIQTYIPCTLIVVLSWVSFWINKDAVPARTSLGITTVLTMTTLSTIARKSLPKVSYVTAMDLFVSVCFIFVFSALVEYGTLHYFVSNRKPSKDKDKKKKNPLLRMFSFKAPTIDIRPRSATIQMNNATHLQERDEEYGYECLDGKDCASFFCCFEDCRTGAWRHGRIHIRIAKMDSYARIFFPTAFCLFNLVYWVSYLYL
Summary of the method: (§1)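 Potentiation of the GABA EC20 current by 100 nM compound is the read-out, recorded by two-electrode voltage clamp at −80 mV in oocytes carrying human α1, α2, α3 or α5 with β3 and γ2L. Baseline came from three 20-s applications of 60 μM GABA.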

[2] = target: T2, α1 subtype containing GABA-A receptors (Homo sapiens, UniProt P14867+P18507); assay: Two-electrode voltage clamp electrophysiology in Xenopus oocytes, potentiation of GABA EC20 response, α1; format: cell-based; details: 100 nM compound; for activation at 0.1 µM: read-out: Percentage of potentiation alpha1
T2 construct: expressed in transfected cells; host or cells: Xenopus laevis oocytes, cRNA injected
T2 sequence (P14867 28-456): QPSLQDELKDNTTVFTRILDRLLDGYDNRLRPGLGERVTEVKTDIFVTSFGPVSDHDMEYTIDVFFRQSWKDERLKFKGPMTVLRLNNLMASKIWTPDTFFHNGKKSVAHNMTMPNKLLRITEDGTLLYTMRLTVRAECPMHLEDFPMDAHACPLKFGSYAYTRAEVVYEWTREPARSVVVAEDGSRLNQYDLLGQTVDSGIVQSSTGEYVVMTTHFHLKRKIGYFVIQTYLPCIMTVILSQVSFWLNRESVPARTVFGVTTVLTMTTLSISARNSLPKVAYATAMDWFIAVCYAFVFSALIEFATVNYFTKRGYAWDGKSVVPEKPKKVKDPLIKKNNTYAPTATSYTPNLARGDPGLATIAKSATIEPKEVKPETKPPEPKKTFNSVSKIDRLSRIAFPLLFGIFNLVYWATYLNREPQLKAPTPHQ
T2 sequence (P28472 26-473 partner): as the sequence (P28472 26-473 partner) above
T2 sequence (P18507 40-475): as the sequence (P18507 40-475) above
Summary of the method: as §1

Row | Compound | Number of Punished Crossings Mean ± S.E.M. (Swiss Webster (CFW) mice; 3 mg/kg PO) | Number of Punished Crossings Mean ± S.E.M. (Swiss Webster (CFW) mice; 10 mg/kg PO) | Number of Punished Crossings Mean ± S.E.M. (Swiss Webster (CFW) mice; 30 mg/kg PO) | activation at 0.1 µM [1] | activation at 0.1 µM [2] | Percentage of potentiation alpha2 [1] | Percentage of potentiation alpha1 [2]
1 | Clc1ccc(-c2nc3ccccn3c2Cc2ncn[nH]2)cc1 [Compound 211, 3-((1H-1,2,4-triazol-5-yl)methyl)-2-(4-chlorophenyl)imidazo[1,2-a]pyridine] | 7.8 ± 0.59 | 8.6 ± 0.85 | 8.9 ± 0.57 | ≥ 50% | 10 to 50% | – | –
2 | Clc1ccc(-c2nc3cccnn3c2Cn2cncn2)cc1 [Compound 32, 3-((1H-1,2,4-triazol-1-yl)methyl)-2-(4-chlorophenyl)imidazo[1,2-b]pyridazine] | 6.6 ± 0.72 | 6.6 ± 0.67 | 5.7 ± 0.94 | 10 to 50% | 10 to 50% | – | –
3 | Cn1ncnc1Cc1c(-c2ccc(F)cc2)nc2ccc(F)cn12 [Compound 200, 6-fluoro-2-(4-fluorophenyl)-3-((1-methyl-1H-1,2,4-triazol-5-yl)methyl)imidazo[1,2-a]pyridine] | 7.2 ± 0.52 | 8.6 ± 0.43 | 7.5 ± 0.39 | ≥ 50% | 10 to 50% | – | –
4 | Cc1ccn(Cc2c(-c3ccc(Cl)cc3)nc3ccccn23)c(=O)n1 [Compound 105, 1-((2-(4-chlorophenyl)imidazo[1,2-a]pyridin-3-yl)methyl)-4-methylpyrimidin-2(1H)-one] | 6.7 ± 0.34 | 5.5 ± 0.60 | 5.6 ± 0.52 | 10 to 50% | 10 to 50% | – | –
5 | NC(=O)c1ncn(Cc2c(-c3ccc(Cl)cc3)nc3ccccn23)n1 [Compound 72, 1-((2-(4-chlorophenyl)imidazo[1,2-a]pyridin-3-yl)methyl)-1H-1,2,4-triazole-3-carboxamide] | 5.8 ± 0.63 | 5.2 ± 0.47 | 4.8 ± 0.36 | ≥ 50% | 10 to 50% | – | –
6 | CNC(=O)c1nccn1Cc1c(-c2ccc(Cl)cc2)nc2ccccn12 [Compound 77, 1-((2-(4-chlorophenyl)H-imidazo[1,2-a]pyridin-3-yl)methyl)-N-methyl-1H-imidazole-2-carboxamide] | 4.3 ± 0.26 | 4.6 ± 0.31 | 5.0 ± 0.37 | – | – | + (percentage of potentiation is greater than or equal to 10% but less than 50% in the presence of 100 nM of the compound) | 0 (percentage of potentiation is between about 10% to about −10%)
